Experimental data published in EP0415304A2, “Dipyrido[3,2-b:2',3'-e][1,4]oxazepin (and thiazepin)-6(5H)-ones and their use in the prevention or treatment of aids” (BOEHRINGER INGELHEIM PHARMACEUTICALS INC., priority 1989, dated 1991).

Molecular target: T1, HIV-1 RT (Human immunodeficiency virus type 1 group M subtype B, UniProt P03367)
T1 construct: Reverse transcriptase enzyme from the LAV strain of Human Immunodeficiency Virus (HIV-1) (1) was isolated from the bacterial strain JM109; made in house; host or cells: E. coli JM109, clone pBRTprtl+ in vector pIB121 under the lac promoter
Assay: Reverse Transcriptase (RT) Assay: inhibition of RNA-dependent DNA polymerase activity
Assay type: biochemical
Conditions: tested at a concentration of 10µg/ml; read-out: inhibit the enzyme (percent inhibition of RNA-dependent DNA polymerase activity of HIV-1 RT)
Source text: Utilizing the Reverse Transcriptase (RT) Assay described below, compounds can be tested for their ability to inhibit the RNA-dependent DNA polymerase activity of HIV-1 RT. The compound described in Example 1, which appears below, was so tested.
Among the enzymes for which Human Immunodeficiency Virus (HIV-1) encodes is a reverse transcriptase (1), so-named because it transcribes a DNA copy from an RNA template. This activity can be quantitatively measured in a cell-free enzyme assay which has been previously described (2), and is based upon the observation that reverse transcriptase is able to use a synthetic template [poly r(C) primed with oligo d(G)] to transcribe a radio-labelled, acid-precipitable DNA strand utilizing ³H-dGTP as a substrate.
Reverse transcriptase enzyme from the LAV strain of Human Immunodeficiency Virus (HIV-1) (1) was isolated from the bacterial strain JM109 (3) expressing the DNA clone pBRTprtl+ (2) which is under the control of the lac promotor in the expression vector pIB121 (4). […]
The 2X concentrated stock reaction mixture is aliquoted and stored at -20°C. […] Each vial receives 2 ml of scintillation cocktail and is counted in a Beckman beta counter. […]

- inhibition at 10 µg/mL: 30%
Compound: CCCN1C(=O)c2cccnc2Oc2ncccc21 [Example 1, 5,6-Dihydro-5-propyl-6H-dipyrido[3,2-b:2′,3′-e][1,4]oxazepin-6-one]
